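Five concentrations, 48 hours, 96-well plates. TGI is the concentration that stops growth completely.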
Key:
Assay in all cases: inhibition of tumour cell growth, NCI panel, 48 h
[1] = system: 786-0 renal
[2] = system: A498 renal
[3] = system: A549 NSCLC
[4] = system: ACHN renal
[5] = system: BT-549 breast
[6] = system: CAKI-1 renal
[7] = system: CCRF-CEM leukemia
[8] = system: COLO 205 colon
[9] = system: DU-145 prostate
[10] = system: EKVX NSCLC
[11] = system: HCC-2998 colon
[12] = system: HCT-116 colon
[13] = system: HCT-15 colon
[14] = system: HL-60(TB) leukemia
[15] = system: HOP-62 NSCLC
[16] = system: HOP-92 NSCLC
[17] = system: HS 578T breast
[18] = system: HT29 colon
[19] = system: IGROV1 ovarian
[20] = system: K-562 leukemia
[21] = system: KM12 colon
[22] = system: LOX IMVI melanoma
[23] = system: M14 melanoma
[24] = system: MALME-3M melanoma
[25] = system: MCF7 breast
[26] = system: MDA-MB-231 breast
[27] = system: MDA-MB-435
[28] = system: MDA-N
[29] = system: MOLT-4 leukemia
[30] = system: NCI-H226 lung
[31] = system: NCI-H23 lung
[32] = system: NCI-H460 lung
[33] = system: NCI-H522 lung
[34] = system: NCI/ADR-RES ovarian
[35] = system: OVCAR-3 ovarian
[36] = system: OVCAR-4 ovarian
[37] = system: OVCAR-5 ovarian
[38] = system: OVCAR-8 ovarian
[39] = system: PC-3 prostate
[40] = system: RPMI-8226 leukemia
[41] = system: RXF 393 renal
[42] = system: SF-268 CNS
[43] = system: SF-295 CNS
[44] = system: SF-539 CNS
[45] = system: SK-MEL-2 melanoma
[46] = system: SK-MEL-28 melanoma
[47] = system: SK-MEL-5 melanoma
[48] = system: SK-OV-3 ovarian
[49] = system: SN12C renal
[50] = system: SNB-19 CNS
[51] = system: SNB-75 CNS
[52] = system: SR leukemia
[53] = system: SW-620 colon
[54] = system: T-47D breast
[55] = system: TK-10 renal
[56] = system: U251 CNS
[57] = system: UACC-257 melanoma
[58] = system: UACC-62 melanoma
[59] = system: UO-31 renal

CCCOc1cc2c(cc1O)CC[C@@H]1[C@@H]2CC[C@]2(C)[C@@H](O)CC[C@@H]12
TGI [1]: 30.5 µM
TGI [2]: 20.7 µM
TGI [3]: > 56.3 µM
TGI [4]: > 56.2 µM
TGI [5]: 20.1 µM
TGI [6]: 23.5 µM
TGI [7]: > 37.4 µM
TGI [8]: 30 µM
TGI [9]: 27.2 µM
TGI [10]: > 57.7 µM
TGI [11]: 17.6 µM
TGI [12]: 42 µM
TGI [13]: > 35.3 µM
TGI [14]: 18.9 µM
TGI [15]: 14.1 µM
TGI [16]: > 60.4 µM
TGI [17]: 11.3 µM
TGI [18]: 25.9 µM
TGI [19]: > 100 µM
TGI [20]: 5.33 µM
TGI [21]: > 55.5 µM
TGI [22]: 34.5 µM
TGI [23]: 36.8 µM
TGI [24]: > 100 µM
TGI [25]: 37.2 µM
TGI [26]: 27.7 µM
TGI [27]: 5.91 µM
TGI [28]: 2.14 µM
TGI [29]: 14.2 µM
TGI [30]: 55 µM
TGI [31]: > 55.5 µM
TGI [32]: 26.5 µM
TGI [33]: 3.52 µM
TGI [34]: 39 µM
TGI [35]: > 46.2 µM
TGI [36]: > 65.5 µM
TGI [37]: > 65.4 µM
TGI [38]: > 59.1 µM
TGI [39]: > 51.6 µM
TGI [40]: 23.7 µM
TGI [41]: 10.4 µM
TGI [42]: > 59.7 µM
TGI [43]: 14.7 µM
TGI [44]: 4.44 µM
TGI [45]: 11.3 µM
TGI [46]: > 50.4 µM
TGI [47]: 12.1 µM
TGI [48]: 50.5 µM
TGI [49]: 37.8 µM
TGI [50]: > 100 µM
TGI [51]: 32.4 µM
TGI [52]: 16.7 µM
TGI [53]: > 35.5 µM
TGI [54]: > 45 µM
TGI [55]: 54.7 µM
TGI [56]: 34.2 µM
TGI [57]: > 58.7 µM
TGI [58]: 30.8 µM
TGI [59]: > 57.2 µM

— PubChem BioAssay (NCI)
